Laboratory results taken from PubChem BioAssay (NCI).
“And” between values parts separate entries of the source, which are not always exact repeats. Equal values may be shown once.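 Step 1: Grow cells in 96-well plates. Step 2: Expose to compound for 48 hours at 5 concentrations. Step 3: Interpolate endpoints linearly; if unreached, use highest concentration. The concentration for 50% growth inhibition is given as GI50. TGI marks complete inhibition of growth.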

Columns and labels:
Experiment in all cases: NCI anticancer screen, dose series, 48 h
786-0 renal = system: 786-0 renal
A498 renal = system: A498 renal
A549 NSCLC = system: A549 NSCLC
ACHN renal = system: ACHN renal
CAKI-1 renal = system: CAKI-1 renal
CCRF-CEM leukemia = system: CCRF-CEM leukemia
COLO 205 colon = system: COLO 205 colon
DLD-1 colon = system: DLD-1 colon
DMS 114 small cell lung = system: DMS 114 small cell lung
DMS 273 small cell lung = system: DMS 273 small cell lung
HCC-2998 colon = system: HCC-2998 colon
HCT-116 colon = system: HCT-116 colon
HCT-15 colon = system: HCT-15 colon
HL-60(TB) leukemia = system: HL-60(TB) leukemia
HOP-18 NSCLC = system: HOP-18 NSCLC
HOP-62 NSCLC = system: HOP-62 NSCLC
HOP-92 NSCLC = system: HOP-92 NSCLC
HT29 colon = system: HT29 colon
IGROV1 ovarian = system: IGROV1 ovarian
K-562 leukemia = system: K-562 leukemia
KM12 colon = system: KM12 colon
KM20L2 colon = system: KM20L2 colon
LOX IMVI melanoma = system: LOX IMVI melanoma
LXFL 529 NSCLC = system: LXFL 529 NSCLC
M14 melanoma = system: M14 melanoma
M19-MEL melanoma = system: M19-MEL melanoma
MALME-3M melanoma = system: MALME-3M melanoma
MOLT-4 leukemia = system: MOLT-4 leukemia
NCI-H460 lung = system: NCI-H460 lung
NCI-H522 lung = system: NCI-H522 lung
OVCAR-4 ovarian = system: OVCAR-4 ovarian
OVCAR-5 ovarian = system: OVCAR-5 ovarian
OVCAR-8 ovarian = system: OVCAR-8 ovarian
RPMI-8226 leukemia = system: RPMI-8226 leukemia
RXF 393 renal = system: RXF 393 renal
SF-268 CNS = system: SF-268 CNS
SF-295 CNS = system: SF-295 CNS
SF-539 CNS = system: SF-539 CNS
SK-MEL-2 melanoma = system: SK-MEL-2 melanoma
SK-MEL-5 melanoma = system: SK-MEL-5 melanoma
SK-OV-3 ovarian = system: SK-OV-3 ovarian
SN12C renal = system: SN12C renal
SNB-19 CNS = system: SNB-19 CNS
SNB-75 CNS = system: SNB-75 CNS
SNB-78 CNS = system: SNB-78 CNS
SR leukemia = system: SR leukemia
SW-620 colon = system: SW-620 colon
TK-10 renal = system: TK-10 renal
U251 CNS = system: U251 CNS
UACC-257 melanoma = system: UACC-257 melanoma
UACC-62 melanoma = system: UACC-62 melanoma
UO-31 renal = system: UO-31 renal
BT-549 breast = system: BT-549 breast
DU-145 prostate = system: DU-145 prostate
EKVX NSCLC = system: EKVX NSCLC
HS 578T breast = system: HS 578T breast
MCF7 breast = system: MCF7 breast
MDA-MB-231 breast = system: MDA-MB-231 breast
MDA-MB-435 = system: MDA-MB-435
MDA-N = system: MDA-N
NCI-H226 lung = system: NCI-H226 lung
NCI-H23 lung = system: NCI-H23 lung
NCI/ADR-RES ovarian = system: NCI/ADR-RES ovarian
OVCAR-3 ovarian = system: OVCAR-3 ovarian
PC-3 prostate = system: PC-3 prostate
SK-MEL-28 melanoma = system: SK-MEL-28 melanoma
T-47D breast = system: T-47D breast

## O=C(O)C1c2ccccc2C(C(=O)O)c2ccccc21 (stereo not drawn)
786-0 renal
  TGI: > 100 µM
A498 renal
  TGI: > 100 µM
A549 NSCLC
  TGI: > 100 µM
ACHN renal
  TGI: > 100 µM
CAKI-1 renal
  TGI: > 100 µM
CCRF-CEM leukemia
  TGI: > 100 µM
COLO 205 colon
  TGI: > 100 µM
DLD-1 colon
  TGI: > 100 µM
DMS 114 small cell lung
  TGI: > 100 µM
DMS 273 small cell lung
  TGI: > 100 µM
HCC-2998 colon
  TGI: > 100 µM
HCT-116 colon
  TGI: > 100 µM
HCT-15 colon
  TGI: > 100 µM
HL-60(TB) leukemia
  TGI: > 100 µM
HOP-18 NSCLC
  TGI: > 100 µM
HOP-62 NSCLC
  TGI: > 100 µM
HOP-92 NSCLC
  TGI: > 100 µM
HT29 colon
  TGI: > 100 µM
IGROV1 ovarian
  TGI: > 100 µM
K-562 leukemia
  TGI: > 100 µM
KM12 colon
  TGI: > 100 µM
KM20L2 colon
  TGI: > 100 µM
LOX IMVI melanoma
  TGI: > 100 µM
LXFL 529 NSCLC
  TGI: > 100 µM
M14 melanoma
  TGI: > 100 µM
M19-MEL melanoma
  TGI: > 100 µM
MALME-3M melanoma
  TGI: > 100 µM
MOLT-4 leukemia
  TGI: > 100 µM
NCI-H460 lung
  TGI: > 100 µM
NCI-H522 lung
  TGI: > 100 µM
OVCAR-4 ovarian
  TGI: > 100 µM
OVCAR-5 ovarian
  TGI: > 100 µM
OVCAR-8 ovarian
  TGI: > 100 µM
RPMI-8226 leukemia
  TGI: > 100 µM
RXF 393 renal
  TGI: > 100 µM
SF-268 CNS
  TGI: > 100 µM
SF-295 CNS
  TGI: > 100 µM
SF-539 CNS
  TGI: > 100 µM
SK-MEL-2 melanoma
  TGI: > 100 µM
SK-MEL-5 melanoma
  TGI: > 100 µM
SK-OV-3 ovarian
  TGI: > 100 µM
SN12C renal
  TGI: > 100 µM
SNB-19 CNS
  TGI: > 100 µM
SNB-75 CNS
  TGI: > 100 µM
SNB-78 CNS
  TGI: > 100 µM
SR leukemia
  TGI: > 100 µM
SW-620 colon
  TGI: > 100 µM
TK-10 renal
  TGI: > 100 µM
U251 CNS
  TGI: > 100 µM
UACC-257 melanoma
  TGI: > 100 µM
UACC-62 melanoma
  TGI: > 100 µM
UO-31 renal
  TGI: > 100 µM

## CC1=C(/C=C/C(C)=C/C=C/C(C)=C/C(=O)Nc2ccc(O)cc2)C(C)(C)CCC1
786-0 renal
  GI50: 1.72 µM
  TGI: 4.36 µM and 10.9 µM
A498 renal
  GI50: 1.96 µM
  TGI: 9.07 µM and 19.1 µM
A549 NSCLC
  GI50: 2.43 µM
  TGI: 14.2 µM and 26.5 µM
ACHN renal
  GI50: 4.79 µM
  TGI: 16.3 µM and 17.7 µM
BT-549 breast
  GI50: 0.826 µM
  TGI: 7.44 µM and 18.6 µM
CAKI-1 renal
  GI50: 3.87 µM
  TGI: 15.8 µM and 13.6 µM
CCRF-CEM leukemia
  GI50: 0.238 µM
  TGI: 13.5 µM and 3.59 µM
COLO 205 colon
  GI50: 1.58 µM
  TGI: 4.8 µM and 8.28 µM
DU-145 prostate
  GI50: 2.93 µM
  TGI: 12.1 µM and 21.4 µM
EKVX NSCLC
  GI50: 5.14 µM
  TGI: 20.7 µM and 25.2 µM
HCC-2998 colon
  GI50: 2.12 µM
  TGI: 5.97 µM and 18 µM
HCT-116 colon
  GI50: 2.05 µM
  TGI: 4.6 µM and 15.7 µM
HCT-15 colon
  TGI: 17.9 µM and 25.2 µM
HL-60(TB) leukemia
  GI50: 0.278 µM
  TGI: 1.31 µM and 9.51 µM
HOP-62 NSCLC
  TGI: 9.95 µM and 15.2 µM
HOP-92 NSCLC
  GI50: 1.77 µM
  TGI: 4.1 µM and 6.11 µM
HS 578T breast
  GI50: 6.25 µM
  TGI: 27.4 µM and 13.7 µM
HT29 colon
  TGI: 7.6 µM and 14.9 µM
IGROV1 ovarian
  GI50: 1.19 µM
  TGI: 3.68 µM and 4.91 µM
K-562 leukemia
  GI50: 1.38 µM
  TGI: 4.28 µM and > 40.4 µM
KM12 colon
  GI50: 1.58 µM
  TGI: 6.19 µM and 17.2 µM
LOX IMVI melanoma
  GI50: 0.588 µM
  TGI: 2.26 µM and 4.76 µM
M14 melanoma
  GI50: 4.05 µM
  TGI: 12.7 µM and 18.7 µM
MALME-3M melanoma
  GI50: 2.1 µM
  TGI: 6.48 µM and 18.7 µM
MCF7 breast
  GI50: 1.4 µM
  TGI: 9.59 µM and 12.9 µM
MDA-MB-231 breast
  GI50: 1.79 µM
  TGI: 10.1 µM and 6.06 µM
MDA-MB-435
  GI50: 1.9 µM
  TGI: 5.99 µM and 18.7 µM
MDA-N
  TGI: 8.35 µM
MOLT-4 leukemia
  GI50: 0.391 µM
  TGI: 2.11 µM and 5.53 µM
NCI-H226 lung
  GI50: 10.3 µM
  TGI: 23.9 µM and 16.7 µM
NCI-H23 lung
  GI50: 1.83 µM
  TGI: 5.41 µM and 5.3 µM
NCI-H460 lung
  GI50: 2.58 µM
  TGI: 9.48 µM and 25.2 µM
NCI-H522 lung
  GI50: 0.262 µM
  TGI: 0.787 µM and 2.82 µM
NCI/ADR-RES ovarian
  GI50: 2.29 µM
  TGI: 7.07 µM and 18.4 µM
OVCAR-3 ovarian
  GI50: 1.5 µM
  TGI: 3.13 µM and 7.54 µM
OVCAR-4 ovarian
  GI50: 2.6 µM
  TGI: 9.53 µM and 14.8 µM
OVCAR-5 ovarian
  GI50: 12.5 µM
  TGI: 26.8 µM and 24 µM
OVCAR-8 ovarian
  GI50: 2.56 µM
  TGI: 8.48 µM and 10.2 µM
PC-3 prostate
  GI50: 1.37 µM
  TGI: 4.61 µM and 12.7 µM
RPMI-8226 leukemia
  GI50: 1.09 µM
  TGI: 8.9 µM and 9.14 µM
RXF 393 renal
  TGI: 6.5 µM and 5.43 µM
SF-268 CNS
  GI50: 1.52 µM
  TGI: 3.94 µM and 14.2 µM
SF-295 CNS
  GI50: 0.932 µM
  TGI: 3.74 µM and 12.3 µM
SF-539 CNS
  GI50: 0.355 µM
  TGI: 1.73 µM and 3.39 µM
SK-MEL-2 melanoma
  GI50: 4.17 µM
  TGI: 13.3 µM and 17.4 µM
SK-MEL-28 melanoma
  GI50: 2.87 µM
  TGI: 8.69 µM and 12.1 µM
SK-MEL-5 melanoma
  GI50: 2.1 µM
  TGI: 7.21 µM and 12 µM
SK-OV-3 ovarian
  GI50: 2.82 µM
  TGI: 9.71 µM and 17.2 µM
SN12C renal
  GI50: 1.61 µM
  TGI: 5.23 µM and 5.63 µM
SNB-19 CNS
  GI50: 4.83 µM
  TGI: 20.4 µM and 18.2 µM
SNB-75 CNS
  GI50: 1.81 µM
  TGI: 5.85 µM and 23.2 µM
SR leukemia
  GI50: 2.53 µM and 1.33 µM
  TGI: 6.02 µM and 5.97 µM
SW-620 colon
  TGI: 13.7 µM and 44.5 µM
T-47D breast
  GI50: 1.31 µM
  TGI: 9.24 µM and 15.5 µM
TK-10 renal
  GI50: 5.07 µM
  TGI: 15.5 µM and 35.4 µM
U251 CNS
  GI50: 1.94 µM
  TGI: 7.79 µM and 33.3 µM
UACC-257 melanoma
  GI50: 4.55 µM
  TGI: 17.4 µM and 24 µM
UACC-62 melanoma
  TGI: 6.94 µM and 7.34 µM
UO-31 renal
  GI50: 1.17 µM
  TGI: 2.57 µM and 11.6 µM
